Results as given in ChEMBL document CHEMBL1201862, “PubChem BioAssay data set” (2004).
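Tested at 5 concentrations; 48 h exposure; 96-well plates; endpoints linearly interpolated, else capped at highest concentration. GI50 marks 50% less growth.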 Activity calls are given as the source filed them. Cut-off read from the data, not from the text of the source: active = GI50 up to about 1.1 µM and inactive = higher.

Tests used:
Test in all cases: DTP human tumour cell line panel, 48 h
[1] = test system: HCT-15
[2] = test system: NCI-H522
[3] = test system: SNB-78
[4] = test system: HOP-18
[5] = test system: TK-10
[6] = test system: DMS-273
[7] = test system: RPMI-8226
[8] = test system: MOLT-4
[9] = test system: SF-295
[10] = test system: SF-268
[11] = test system: HOP-62
[12] = test system: OVCAR-4
[13] = test system: ACHN
[14] = test system: UACC-62
[15] = test system: KM-20L2
[16] = test system: NCI-H23
[17] = test system: DLD-1
[18] = test system: K562
[19] = test system: XF498
[20] = test system: OVCAR-8
[21] = test system: HOP-92
[22] = test system: NCI-H460
[23] = test system: 786-0
[24] = test system: UO-31
[25] = test system: SK-MEL-5
[26] = test system: SNB-19
[27] = test system: RXF 393
[28] = test system: LXFL 529
[29] = test system: EKVX
[30] = test system: HL-60
[31] = test system: SF-539
[32] = test system: SNB-75
[33] = test system: A549
[34] = test system: SK-OV-3
[35] = test system: DMS-114
[36] = test system: M19-MEL
[37] = test system: IGROV-1
[38] = test system: CAKI-1
[39] = test system: SK-MEL-28
[40] = test system: OVCAR-5
[41] = test system: CCRF-CEM
[42] = test system: SN12C
[43] = test system: HT-29
[44] = test system: COLO 205
[45] = test system: UACC-257
[46] = test system: SW-620
[47] = test system: HCC 2998
[48] = test system: M14
[49] = test system: Malme-3M
[50] = test system: SK-MEL-2
[51] = test system: OVCAR-3
[52] = test system: U-251
[53] = test system: RXF 631
[54] = test system: HCT-116
[55] = test system: A498
[56] = test system: KM12
[57] = test system: SR
[58] = test system: LOX IMVI
[59] = test system: NCI-H226

SMILES: c1ccc2c3c([nH]c2c1)[C@H]1C2CCCCN2CN1CC3 (some centres undefined)
- GI50 [1]: > 100 µM
- GI50 [2]: > 100 µM (inactive)
- GI50 [3]: 94.4 µM (inactive)
- GI50 [4]: > 100 µM (inactive)
- GI50 [5]: > 100 µM (inactive)
- GI50 [6]: > 100 µM (inactive)
- GI50 [7]: > 100 µM (inactive)
- GI50 [8]: > 100 µM (inactive)
- GI50 [9]: > 100 µM (inactive)
- GI50 [10]: 51.6 µM (inactive)
- GI50 [11]: > 100 µM (inactive)
- GI50 [12]: > 100 µM (inactive)
- GI50 [13]: > 100 µM (inactive)
- GI50 [14]: 51.8 µM (inactive)
- GI50 [15]: > 100 µM (inactive)
- GI50 [16]: > 100 µM (inactive)
- GI50 [17]: > 100 µM (inactive)
- GI50 [18]: > 100 µM (inactive)
- GI50 [19]: > 100 µM (inactive)
- GI50 [20]: > 100 µM (inactive)
- GI50 [21]: > 100 µM (inactive)
- GI50 [22]: > 100 µM (inactive)
- GI50 [23]: > 100 µM (inactive)
- GI50 [24]: > 100 µM (inactive)
- GI50 [25]: > 100 µM (inactive)
- GI50 [26]: > 100 µM (inactive)
- GI50 [27]: 89.9 µM (inactive)
- GI50 [28]: > 100 µM (inactive)
- GI50 [29]: > 100 µM (inactive)
- GI50 [30]: 47.2 µM (inactive)
- GI50 [31]: > 100 µM (inactive)
- GI50 [32]: 27.1 µM (inactive)
- GI50 [33]: > 100 µM (inactive)
- GI50 [34]: > 100 µM (inactive)
- GI50 [35]: 47.8 µM (inactive)
- GI50 [36]: > 100 µM (inactive)
- GI50 [37]: > 100 µM (inactive)
- GI50 [38]: > 100 µM (inactive)
- GI50 [39]: > 100 µM (inactive)
- GI50 [40]: > 100 µM (inactive)
- GI50 [41]: > 100 µM (inactive)
- GI50 [42]: > 100 µM (inactive)
- GI50 [43]: 81.7 µM (inactive)
- GI50 [44]: > 100 µM (inactive)
- GI50 [45]: > 100 µM (inactive)
- GI50 [46]: > 100 µM (inactive)
- GI50 [47]: > 100 µM (inactive)
- GI50 [48]: > 100 µM (inactive)
- GI50 [49]: 83.6 µM (inactive)
- GI50 [50]: > 100 µM (inactive)
- GI50 [51]: > 100 µM (inactive)
- GI50 [52]: > 100 µM (inactive)
- GI50 [53]: > 100 µM (inactive)
- GI50 [54]: > 100 µM (inactive)
- GI50 [55]: > 100 µM (inactive)

SMILES: COc1ccccc1NC(=O)C(=O)C1C(=O)Nc2ccccc2[S+]1[O-] (centres undefined)
- GI50 [1]: > 100 µM
- GI50 [2]: > 100 µM (inactive)
- GI50 [3]: > 100 µM (inactive)
- GI50 [4]: > 100 µM (inactive)
- GI50 [56]: > 100 µM (inactive)
- GI50 [5]: > 100 µM (inactive)
- GI50 [6]: > 100 µM (inactive)
- GI50 [57]: > 100 µM (inactive)
- GI50 [8]: > 100 µM (inactive)
- GI50 [9]: > 100 µM (inactive)
- GI50 [10]: > 100 µM (inactive)
- GI50 [11]: > 100 µM (inactive)
- GI50 [12]: > 100 µM (inactive)
- GI50 [13]: > 100 µM (inactive)
- GI50 [14]: > 100 µM (inactive)
- GI50 [15]: > 100 µM (inactive)
- GI50 [16]: > 100 µM (inactive)
- GI50 [17]: > 100 µM (inactive)
- GI50 [18]: > 100 µM (inactive)
- GI50 [19]: > 100 µM (inactive)
- GI50 [20]: > 100 µM (inactive)
- GI50 [22]: > 100 µM (inactive)
- GI50 [23]: > 100 µM (inactive)
- GI50 [24]: > 100 µM (inactive)
- GI50 [58]: > 100 µM (inactive)
- GI50 [25]: > 100 µM (inactive)
- GI50 [26]: > 100 µM (inactive)
- GI50 [27]: > 100 µM (inactive)
- GI50 [28]: > 100 µM (inactive)
- GI50 [29]: > 100 µM (inactive)
- GI50 [30]: > 100 µM (inactive)
- GI50 [31]: > 100 µM (inactive)
- GI50 [32]: > 100 µM (inactive)
- GI50 [33]: > 100 µM (inactive)
- GI50 [34]: > 100 µM (inactive)
- GI50 [35]: > 100 µM (inactive)
- GI50 [36]: > 100 µM (inactive)
- GI50 [37]: > 100 µM (inactive)
- GI50 [38]: > 100 µM (inactive)
- GI50 [39]: > 100 µM (inactive)
- GI50 [40]: > 100 µM (inactive)
- GI50 [41]: > 100 µM (inactive)
- GI50 [42]: > 100 µM (inactive)
- GI50 [43]: > 100 µM (inactive)
- GI50 [44]: > 100 µM (inactive)
- GI50 [45]: > 100 µM (inactive)
- GI50 [46]: > 100 µM (inactive)
- GI50 [59]: > 100 µM (inactive)
- GI50 [47]: > 100 µM (inactive)
- GI50 [48]: > 100 µM (inactive)
- GI50 [49]: > 100 µM (inactive)
- GI50 [50]: > 100 µM (inactive)
- GI50 [51]: > 100 µM (inactive)
- GI50 [52]: > 100 µM (inactive)
- GI50 [53]: > 100 µM (inactive)
- GI50 [54]: > 100 µM (inactive)
- GI50 [55]: > 100 µM (inactive)

SMILES: Cc1oc2c(C)c3oc(=O)cc(C)c3cc2c1CNC(=O)[C@@H]1OCCOCCOCCOCCOCCOC1C(=O)O (some centres undefined)
- GI50 [1]: > 100 µM
- GI50 [2]: > 100 µM (inactive)
- GI50 [3]: > 100 µM (inactive)
- GI50 [4]: > 100 µM (inactive)
- GI50 [56]: > 100 µM (inactive)
- GI50 [5]: > 100 µM (inactive)
- GI50 [6]: > 100 µM (inactive)
- GI50 [7]: > 100 µM (inactive)
- GI50 [57]: > 100 µM (inactive)
- GI50 [8]: > 100 µM (inactive)
- GI50 [9]: > 100 µM (inactive)
- GI50 [10]: > 100 µM (inactive)
- GI50 [11]: > 100 µM (inactive)
- GI50 [12]: > 100 µM (inactive)
- GI50 [13]: > 100 µM (inactive)
- GI50 [14]: > 100 µM (inactive)
- GI50 [15]: > 100 µM (inactive)
- GI50 [16]: > 100 µM (inactive)
- GI50 [17]: > 100 µM (inactive)
- GI50 [18]: > 100 µM (inactive)
- GI50 [19]: > 10 µM (inactive)
- GI50 [20]: > 100 µM (inactive)
- GI50 [21]: > 100 µM (inactive)
- GI50 [22]: > 100 µM (inactive)
- GI50 [23]: 21.2 µM (inactive)
- GI50 [24]: > 100 µM (inactive)
- GI50 [58]: > 100 µM (inactive)
- GI50 [25]: > 100 µM (inactive)
- GI50 [26]: > 100 µM (inactive)
- GI50 [27]: > 100 µM (inactive)
- GI50 [28]: 8.15 µM (inactive)
- GI50 [29]: > 100 µM (inactive)
- GI50 [30]: > 100 µM (inactive)
- GI50 [31]: > 100 µM (inactive)
- GI50 [32]: > 100 µM (inactive)
- GI50 [33]: > 100 µM (inactive)
- GI50 [34]: > 100 µM (inactive)
- GI50 [35]: > 100 µM (inactive)
- GI50 [36]: > 100 µM (inactive)
- GI50 [37]: > 100 µM (inactive)
- GI50 [38]: > 100 µM (inactive)
- GI50 [40]: > 100 µM (inactive)
- GI50 [41]: > 100 µM (inactive)
- GI50 [42]: > 100 µM (inactive)
- GI50 [43]: > 100 µM (inactive)
- GI50 [44]: > 100 µM (inactive)
- GI50 [45]: > 100 µM (inactive)
- GI50 [46]: > 100 µM (inactive)
- GI50 [59]: > 100 µM (inactive)
- GI50 [47]: > 100 µM (inactive)
- GI50 [48]: 12.5 µM (inactive)
- GI50 [49]: > 100 µM (inactive)
- GI50 [51]: > 100 µM (inactive)
- GI50 [52]: > 100 µM (inactive)
- GI50 [53]: 36.1 µM (inactive)
- GI50 [54]: > 100 µM (inactive)
- GI50 [55]: > 100 µM (inactive)
